Like-named read-outs stand apart in the source and are kept apart here.
How the values were obtained:
[1] = test system: FER cytoplasmic domain (FER‐CD); assay: FER-CD kinase activity (autophosphorylation), high-throughput screening, Kinase-Lumi luminescent ATP consumption; assay type: biochemical, Arabidopsis thaliana; details: in vitro autophosphorylation
Ralstonia solanacearum [2] = assay type: in vivo; details: Arabidopsis seedlings pretreated with 5 μM, 4 days after inoculation
Ralstonia solanacearum [3] = assay type: in vivo, tobacco; details: roots pretreated twice with 3 mL of 5 μM
Ralstonia solanacearum [4] = assay type: in vivo, tomato; details: roots pretreated twice with 3 mL of 5 μM
Meloidogyne incognita [5] = assay: Rice root-knot nematode disease, preventive root treatment; assay type: in vivo; details: in vivo
Ralstonia solanacearum [6] = assay type: in vivo, tobacco; details: 5 μM irrigated twice two days after inoculation
Meloidogyne incognita [7] = assay: Established rice root-knot nematode disease (inhibitor applied after inoculation); assay type: in vivo; details: in vivo
FRK1 = details: 5 μM for 24 h, confocal microscopy
PER5 = details: 5 μM for 24 h, confocal microscopy
PKC = test system: PKC; design: method as in Omura et al., [2018]; details: ref Omura et al., [2018]; cited from earlier work
PKA = test system: PKA; design: method as in Omura et al., [2018]; details: ref Omura et al., [2018]; cited from earlier work
[8] = test system: ROS in Col‐0 and fer‐4 roots; assay: ROS detection in plant roots (H2DCF-DA fluorescence); details: 5 μM for 15 min, vs DMSO and lapatinib
tobacco = assay: Growth of tobacco (shoot and root fresh weight, Day 25); details: 5 μM irrigated twice
[9] = test system: Arabidopsis Col‐0 and fer‐4 seedlings; assay: Growth of Arabidopsis seedlings (root length, shoot fresh weight); details: 5 μM for 3 days, vs ddH2O (mock) and lapatinib
FER‐CD [10] = target: T1, FER‐CD (Arabidopsis thaliana, UniProt Q9SCZ4); details: read-out: Equilibrium dissociation constant (KD) of binding to FER-CD; MST, 25°C, 100 nM labelled FER-CD, means ± SEs (n = 3)
NtFER‐CD = assay: NtFER-CD kinase activity (autophosphorylation); assay type: biochemical, Nicotiana tabacum; details: tobacco FER homologue
HERK1‐CD = assay: HERK1-CD kinase activity (autophosphorylation); assay type: biochemical, Arabidopsis thaliana; details: 5 μM
ANJEA‐CD = assay: ANJEA-CD kinase activity (autophosphorylation); assay type: biochemical, Arabidopsis thaliana; details: 5 μM
THE1‐CD = assay: THE1-CD kinase activity (autophosphorylation); assay type: biochemical, Arabidopsis thaliana; details: 5 μM
FER‐CD [11] = target: T1, FER‐CD; assay: biochemical

T1 sequence (Q9SCZ4 469-895): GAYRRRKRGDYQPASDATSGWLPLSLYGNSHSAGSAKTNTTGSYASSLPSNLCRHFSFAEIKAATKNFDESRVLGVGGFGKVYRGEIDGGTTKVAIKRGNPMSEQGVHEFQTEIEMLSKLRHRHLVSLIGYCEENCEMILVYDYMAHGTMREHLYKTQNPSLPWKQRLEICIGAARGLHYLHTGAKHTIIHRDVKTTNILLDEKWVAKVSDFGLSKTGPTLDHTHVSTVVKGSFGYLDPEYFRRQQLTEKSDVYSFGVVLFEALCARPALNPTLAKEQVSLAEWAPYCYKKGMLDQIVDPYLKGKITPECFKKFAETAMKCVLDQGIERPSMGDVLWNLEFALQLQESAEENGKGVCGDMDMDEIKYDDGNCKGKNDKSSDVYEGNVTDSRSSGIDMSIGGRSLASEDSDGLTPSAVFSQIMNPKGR

CN[C@@H]1C[C@H]2O[C@@](C)([C@@H]1OC)n1c3ccccc3c3c4c(c5c6ccccc6n2c5c31)C(=O)NC4 [Staurosporine]
Effect on FER kinase activity [1]: inhibited the kinase activity of FER
Cotyledon bleaching caused by R. solanacearum (Ralstonia solanacearum [2]): effectively prevented the cotyledon bleaching
Control of tobacco bacterial wilt (Ralstonia solanacearum [3]): alleviated soil‐borne diseases
Control of tomato bacterial wilt (Ralstonia solanacearum [4]): alleviated soil‐borne diseases
Control of rice root-knot nematode disease (Meloidogyne incognita [5]): alleviated soil‐borne diseases
Effect on established tobacco bacterial wilt (Ralstonia solanacearum [6]): could not completely prevent the occurrence of the diseases or cure already diseased plants
Effect on established rice root-knot nematode disease (Meloidogyne incognita [7]): could not completely prevent the occurrence of the diseases or cure already diseased plants
Expression of FRK1 in roots (FRK1): observably enhanced the expression of FRK1
Root cell morphology (FRK1): caused expansion of the root cells
Expression of PER5 in roots (PER5): elevated the expression of PER5 to a certain extent
Production of ROS in Col-0 roots [8]: significantly increased the production of ROS
Growth (biomass) of tobacco shoots and roots (tobacco): did not observably affect the biomass
Growth of roots and shoots of Arabidopsis Col-0 seedlings [9]: severely inhibited root and shoot growth

Nc1ncnc2c1ncn2[C@@H]1O[C@H](COP(=O)(O)OP(=O)(O)OP(=O)(O)O)[C@@H](O)[C@H]1O [ATP]
Kd (FER‐CD [10]): 18400 nM

CS(=O)(=O)CCNCc1ccc(-c2ccc3ncnc(Nc4ccc(OCc5cccc(F)c5)c(Cl)c4)c3c2)o1 [lapatinib]
Effect on FER kinase activity [1]: did not affect FER kinase activity
Inhibitory effect on NtFER-CD kinase activity (NtFER‐CD): ineffective
Cotyledon bleaching caused by R. solanacearum (Ralstonia solanacearum [2]): turned white
Expression of FRK1 in roots (FRK1): did not affect the expression levels
Expression of PER5 in roots (PER5): did not affect the expression levels

Cc1cc(Nc2ncc(F)c(NC3C4C=CC(C4)C3C(N)=O)n2)ccc1N1CCN(C)CC1 (stereo not drawn) [Cenisertib]
Effect on FER kinase activity [1]: inhibited the kinase activity of FER
Inhibition rate of HERK1-CD kinase activity (HERK1‐CD): higher than 88%
Inhibition rate of ANJEA-CD kinase activity (ANJEA‐CD): higher than 88%
Inhibition rate of THE1-CD kinase activity (THE1‐CD): higher than 88%
Cotyledon bleaching caused by R. solanacearum (Ralstonia solanacearum [2]): turned white
Expression of FRK1 in roots (FRK1): increased the expression of FRK1
Expression of PER5 in roots (PER5): did not affect the expression of PER5
Kd (FER‐CD [11]): 1970 nM
Production of ROS in Col-0 roots [8]: had no effect on ROS levels

Reference: publication PMC9829398 (Plant Biotechnology Journal, 2022)
